In ChEMBL document CHEMBL1955794, “β-Carboline alkaloids from the leaves of Trigonostemon lii Y.T. Chang” (Bioorg Med Chem Lett, 2012):

Columns and labels:
Type in all cases: functional, cell-based
SW480 = assay: Cytotoxicity against human SW480 cells after 48 hrs by MTT assay; details: SW480, 48 h
MCF7 = assay: Cytotoxicity against human MCF7 cells after 48 hrs by MTT assay; details: MCF7, 48 h
A549 = assay: Cytotoxicity against human A549 cells after 48 hrs by MTT assay; details: A549, 48 h
SMMC-7721 = assay: Cytotoxicity against human SMMC7721 cells after 48 hrs by MTT assay; details: SMMC-7721, 48 h
HL-60 = assay: Cytotoxicity against human HL60 cells after 48 hrs by MTT assay; details: HL-60, 48 h

COc1ccc2c3c([nH]c2c1)-c1nc2ccccc2c(=O)n1CC3
IC50 (SW480): > 40 µM | IC50 (MCF7): > 40 µM | IC50 (A549): > 40 µM | IC50 (SMMC-7721): > 40 µM | IC50 (HL-60): > 40 µM

COc1ccc2c(=O)n3c(nc2c1)-c1[nH]c2ccccc2c1CC3
IC50 (SW480): > 40 µM | IC50 (MCF7): > 40 µM | IC50 (A549): > 40 µM | IC50 (SMMC-7721): > 40 µM | IC50 (HL-60): > 40 µM

O=C1NCCc2c1[nH]c1ccccc21
IC50 (SW480): > 40 µM | IC50 (MCF7): > 40 µM | IC50 (A549): > 40 µM | IC50 (SMMC-7721): > 40 µM | IC50 (HL-60): > 40 µM

COc1ccc2c(c1)[nH]c1c(C(C)=O)nccc12 [ARENARINE C]
IC50 (SW480): > 40 µM | IC50 (MCF7): > 40 µM | IC50 (A549): > 40 µM | IC50 (SMMC-7721): > 40 µM | IC50 (HL-60): > 40 µM

COC(=O)c1nccc2c1[nH]c1cc(OC)ccc12 [HARMIC ACID METHYL ESTER]
IC50 (SW480): > 40 µM | IC50 (MCF7): > 40 µM | IC50 (A549): > 40 µM | IC50 (SMMC-7721): > 40 µM | IC50 (HL-60): > 40 µM

COc1ccc2c(c1)[nH]c1c(C(=O)c3c[nH]c4ccccc34)nccc12 [TRIGONOSTEMINE A]
IC50 (SW480): 4.86 µM | IC50 (MCF7): 5.3 µM | IC50 (A549): 23.9 µM | IC50 (SMMC-7721): 22.4 µM | IC50 (HL-60): 13.4 µM

COc1ccc2c(C(=O)c3nccc4c3[nH]c3cc(OC)ccc34)c[nH]c2c1 [TRIGONOSTEMINE B]
IC50 (SW480): 3.55 µM | IC50 (MCF7): 2.98 µM | IC50 (A549): 8.67 µM | IC50 (SMMC-7721): 4.78 µM | IC50 (HL-60): > 40 µM

COc1ccc2c(c1)[nH]c1c(C(=O)c3c(O)[nH]c4ccccc34)nccc12 [TRIGONOSTEMINE C]
IC50 (SW480): 17.2 µM | IC50 (MCF7): 16.1 µM | IC50 (A549): 18.5 µM | IC50 (SMMC-7721): 16 µM | IC50 (HL-60): > 40 µM

COc1ccc2c(C(=O)c3nccc4c3[nH]c3ccccc34)c(O)[nH]c2c1 [TRIGONOSTEMINE D]
IC50 (SW480): > 40 µM | IC50 (MCF7): 13.8 µM | IC50 (A549): > 40 µM | IC50 (SMMC-7721): > 40 µM | IC50 (HL-60): > 40 µM

COc1ccc2c(c1)[nH]c1c(-c3ccnc4ccccc34)nc(O)cc12 [TRIGONOSTEMINE E]
IC50 (SW480): 39.1 µM | IC50 (MCF7): 14.4 µM | IC50 (A549): 24.3 µM | IC50 (SMMC-7721): 23.5 µM | IC50 (HL-60): 18.8 µM

COc1ccc2c(-c3nc(O)cc4c3[nH]c3ccccc34)ccnc2c1 [TRIGONOSTEMINE F]
IC50 (SW480): > 40 µM | IC50 (MCF7): > 40 µM | IC50 (A549): > 40 µM | IC50 (SMMC-7721): > 40 µM | IC50 (HL-60): > 40 µM

COc1ccc2c(c1)[nH]c1c(-c3ccnc4ccccc34)nccc12 [TRIGONOSTEMONINE C]
IC50 (SW480): > 40 µM | IC50 (MCF7): > 40 µM | IC50 (A549): 23.1 µM | IC50 (SMMC-7721): 15.5 µM | IC50 (HL-60): 13.4 µM

COc1ccc2c(-c3nccc4c3[nH]c3ccccc34)ccnc2c1 [TRIGONOSTEMONINE D]
IC50 (SW480): > 40 µM | IC50 (MCF7): > 40 µM | IC50 (A549): > 40 µM | IC50 (SMMC-7721): > 40 µM | IC50 (HL-60): > 40 µM

COc1ccc2c(C3=NCCc4c3[nH]c3ccccc43)ccnc2c1 [TRIGONOSTEMONINE E]
IC50 (SW480): > 40 µM | IC50 (MCF7): > 40 µM | IC50 (A549): > 40 µM | IC50 (SMMC-7721): > 40 µM | IC50 (HL-60): > 40 µM
